Measurements reported in patent US20230085307A1, “PYRIDAZINONE COMPOUND AND HERBICIDE” (NISSAN CHEMICAL CORPORATION, priority 2019, published 2023).

Legend:
Japanese bulrush = assay: Test Example 1: herbicidal activity, application before weed generation under submerged conditions (Table 16, symbol B); type: in vivo, Japanese bulrush (Schoenoplectus juncoides); conditions: 320 g/ha applied herbicide
Summary of the method: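 Alluvial soil was flooded to 4 cm depth, weed seeds were sown mixed and 2.5-leaf rice seedlings were transplanted. On sowing day, the compound's emulsion, diluted in water to a set dose, was applied to the water surface. Plants grew at 25–30 °C and were scored 0–5 after three weeks.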

late watergrass = assay: Test Example 2: herbicidal activity, application during weed generation under submerged conditions (Table 17, symbol A); type: in vivo, late watergrass (Echinochloa oryzicola); conditions: AAH 320 g/ha; application during weed generation, submerged conditions
Summary of the method: (§1)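 Steps: fill Wagner pots with alluvial soil; add water to give 4 cm depth; sow the species mixed; grow under glass at 25–30° C.; at 1–2 leaves apply water-diluted emulsion formulation to the water surface at a fixed herbicide amount; score after 3 weeks.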

oval-leafed pondweed = assay: Test Example 2: herbicidal activity, application during weed generation under submerged conditions (Table 17, symbol C); type: in vivo, oval-leafed pondweed (Monochoria vaginalis); conditions: AAH 320 g/ha; application during weed generation, submerged conditions
Summary of the method: as §1

Chinese sprangletop = assay: Test Example 3: herbicidal effect by foliage application, Wagner pot (Table 18, symbol D); type: in vivo, chinese sprangletop (Leptochloa chinensis); conditions: for herbicidal effect on D: Chinese sprangletop: amount of applied herbicide 320 g/ha
Summary of the method: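 Plants were sown in alluvial soil held under 0.1–0.5 cm standing water and grown 14 days in a greenhouse at 25–30 °C. An emulsifiable formulation, water-diluted to the set dose, was then sprayed onto the foliage, and effects were scored three weeks later using previously defined criteria.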

southern crabgrass = assay: Test Example 4: herbicidal effect by soil treatment (Table 19, symbol F); type: in vivo, southern crabgrass (Digitaria ciliaris); conditions: amount of applied herbicide 320 g/ha
Summary of the method: (§2)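 Applied as a water-diluted emulsion, the compound was sprayed onto soil covering newly sown seeds. Evaluation came three weeks after application, in a greenhouse held at 25° C. to 30° C.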

wild oat [1] = assay: Test Example 4: herbicidal effect by soil treatment (Table 19, symbol I); type: in vivo, wild oat (Avena fatua); conditions: amount of applied herbicide 320 g/ha
Summary of the method: as §2

blackgrass = assay: Test Example 4: herbicidal effect by soil treatment (Table 19, symbol J); type: in vivo, blackgrass (Alopecurus myosuroides); conditions: amount of applied herbicide 320 g/ha
Summary of the method: as §2

Italian ryegrass = assay: Test Example 4: herbicidal effect by soil treatment (Table 19, symbol K); type: in vivo, Italian ryegrass (Lolium multiflorum); conditions: amount of applied herbicide 320 g/ha
Summary of the method: as §2

windgrass [2] = assay: Test Example 4: herbicidal effect by soil treatment (Table 19, symbol L); type: in vivo, windgrass (Apera spica-venti); conditions: amount of applied herbicide 320 g/ha
Summary of the method: as §2

lambsquarters [3] = assay: Test Example 4: herbicidal effect by soil treatment (Table 19, symbol O); type: in vivo, lambsquarters (Chenopodium album); conditions: amount of applied herbicide 320 g/ha
Summary of the method: as §2

persian speedwell [4] = assay: Test Example 4: herbicidal effect by soil treatment (Table 19, symbol R); type: in vivo, Persian speedwell (Veronica persica); conditions: amount of applied herbicide 320 g/ha
Summary of the method: as §2

barnyard grass = assay: Test Example 5: herbicidal effect by foliage application, plastic box (Table 20, symbol H); type: in vivo, barnyard grass (Echinochloa crus-galli); conditions: foliage application
Summary of the method: (§3)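 Sow seeds spot-wise in sterilized diluvial soil; cover with ~1.5 cm soil. Grow 14 days in greenhouse, 25° C. to 30° C. Spray foliage with emulsion diluted to predetermined amount. Rate effect after 3 weeks.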

wild oat [5] = assay: Test Example 5: herbicidal effect by foliage application, plastic box (Table 20, symbol I); type: in vivo, wild oat (Avena fatua); conditions: foliage application
Summary of the method: as §3

windgrass [6] = assay: Test Example 5: herbicidal effect by foliage application, plastic box (Table 20, symbol L); type: in vivo, windgrass (Apera spica-venti); conditions: foliage application
Summary of the method: as §3

velvetleaf = assay: Test Example 5: herbicidal effect by foliage application, plastic box (Table 20, symbol M); type: in vivo, velvetleaf (Abutilon theophrasti); conditions: foliage application
Summary of the method: as §3

lambsquarters [7] = assay: Test Example 5: herbicidal effect by foliage application, plastic box (Table 20, symbol O); type: in vivo, lambsquarters (Chenopodium album); conditions: foliage application
Summary of the method: as §3

persian speedwell [8] = assay: Test Example 5: herbicidal effect by foliage application, plastic box (Table 20, symbol R); type: in vivo, Persian speedwell (Veronica persica); conditions: foliage application
Summary of the method: as §3

[9] = 320 g/ha, evaluated three weeks after application
[10] = AAH 320 g/ha, evaluated three weeks after application
[11] = 320 g/ha, three weeks after application

SMILES: Cc1nn(C)c(=O)c(-c2c(-c3ccc(C(F)F)cc3)sc3ccc(F)cc23)c1O [2-227]
- Herbicidal effect on B: Japanese bulrush (grade 0-5) (Japanese bulrush): 0 (Herbicidal rate of 5% or less (almost no effect))
- herbicidal effect rating, A: late watergrass (late watergrass): 0 (Herbicidal rate of 5% or less (almost no effect))
- herbicidal effect rating, C: oval-leafed pondweed (oval-leafed pondweed): 0 (Herbicidal rate of 5% or less (almost no effect))
- herbicidal effect on D: Chinese sprangletop (Chinese sprangletop): 3 (Herbicidal rate of 40% or more and less than 70%)
- herbicidal effect on F: southern crabgrass (southern crabgrass): 5 (Herbicidal rate of 90% or more (almost completely withered))
- herbicidal effect on I: wild oat (wild oat [1]): 0 (Herbicidal rate of 5% or less (almost no effect))
- herbicidal effect on J: blackgrass (blackgrass): 1 (Herbicidal rate of 5% or more and less than 20%)
- herbicidal effect on K: Italian ryegrass (Italian ryegrass): 4 (Herbicidal rate of 70% or more and less than 90%)
- herbicidal effect on L: windgrass (windgrass [2]): 0 (Herbicidal rate of 5% or less (almost no effect))
- herbicidal effect on O: lambsquarters (lambsquarters [3]): 5 (Herbicidal rate of 90% or more (almost completely withered))
- herbicidal effect on R: persian speedwell (persian speedwell [4]): 4 (Herbicidal rate of 70% or more and less than 90%)
- herbicidal effect on H: barnyard grass (criteria 0-5) (barnyard grass; [9]): 5 (Herbicidal rate of 90% or more (almost completely withered))
- herbicidal effect on I: wild oat (criteria 0-5) (wild oat [5]; [9]): 0 (Herbicidal rate of 5% or less (almost no effect))
- herbicidal effect on L: windgrass (criteria 0-5) (windgrass [6]; [9]): 0 (Herbicidal rate of 5% or less (almost no effect))
- herbicidal effect on M: velvetleaf (criteria 0-5) (velvetleaf; [9]): 5 (Herbicidal rate of 90% or more (almost completely withered))
- herbicidal effect on O: lambsquarters (criteria 0-5) (lambsquarters [7]; [9]): 5 (Herbicidal rate of 90% or more (almost completely withered))
- herbicidal effect on R: persian speedwell (criteria 0-5) (persian speedwell [8]; [9]): 5 (Herbicidal rate of 90% or more (almost completely withered))

SMILES: Cc1nn(C)c(=O)c(-c2c(-c3ccc(CSCC(F)(F)F)cc3)sc3ccc(F)cc23)c1O [2-331]
- Herbicidal effect on B: Japanese bulrush (grade 0-5) (Japanese bulrush): 3 (Herbicidal rate of 40% or more and less than 70%)
- herbicidal effect rating, A: late watergrass (late watergrass): 3 (Herbicidal rate of 40% or more and less than 70%)
- herbicidal effect rating, C: oval-leafed pondweed (oval-leafed pondweed): 0 (Herbicidal rate of 5% or less (almost no effect))
- herbicidal effect on D: Chinese sprangletop (Chinese sprangletop): 0 (Herbicidal rate of 5% or less (almost no effect))
- herbicidal effect on F: southern crabgrass (southern crabgrass): 3 (Herbicidal rate of 40% or more and less than 70%)
- herbicidal effect on I: wild oat (wild oat [1]): 0 (Herbicidal rate of 5% or less (almost no effect))
- herbicidal effect on J: blackgrass (blackgrass): 0 (Herbicidal rate of 5% or less (almost no effect))
- herbicidal effect on K: Italian ryegrass (Italian ryegrass): 5 (Herbicidal rate of 90% or more (almost completely withered))
- herbicidal effect on L: windgrass (windgrass [2]): 0 (Herbicidal rate of 5% or less (almost no effect))
- herbicidal effect on O: lambsquarters (lambsquarters [3]): 4 (Herbicidal rate of 70% or more and less than 90%)
- herbicidal effect on R: persian speedwell (persian speedwell [4]): 4 (Herbicidal rate of 70% or more and less than 90%)
- H: barnyard grass, herbicidal effect (criteria 0-5) (barnyard grass; [10]): 5 (Herbicidal rate of 90% or more (almost completely withered))
- I: wild oat, herbicidal effect (criteria 0-5) (wild oat [5]; [10]): 3 (Herbicidal rate of 40% or more and less than 70%)
- L: windgrass, herbicidal effect (criteria 0-5) (windgrass [6]; [10]): 4 (Herbicidal rate of 70% or more and less than 90%)
- M: velvetleaf, herbicidal effect (criteria 0-5) (velvetleaf; [10]): 5 (Herbicidal rate of 90% or more (almost completely withered))
- O: lambsquarters, herbicidal effect (criteria 0-5) (lambsquarters [7]; [10]): 5 (Herbicidal rate of 90% or more (almost completely withered))
- R: persian speedwell, herbicidal effect (criteria 0-5) (persian speedwell [8]; [10]): 5 (Herbicidal rate of 90% or more (almost completely withered))

SMILES: Cc1nn(C)c(=O)c(-c2c(-c3ccc(OC(C)C)cc3)sc3ccccc23)c1O [1-020]
- Herbicidal effect on B: Japanese bulrush (grade 0-5) (Japanese bulrush): 5 (Herbicidal rate of 90% or more (almost completely withered))
- herbicidal effect rating, A: late watergrass (late watergrass): 2 (Herbicidal rate of 20% or more and less than 40%)
- herbicidal effect rating, C: oval-leafed pondweed (oval-leafed pondweed): 3 (Herbicidal rate of 40% or more and less than 70%)
- herbicidal effect on D (Chinese sprangletop), rating 0-5 (Chinese sprangletop; 320 g/ha): 1 (Herbicidal rate of 5% or more and less than 20%)
- herbicidal effect rating, F: southern crabgrass (southern crabgrass): 0 (Herbicidal rate of 5% or less (almost no effect))
- herbicidal effect rating, I: wild oat (wild oat [1]): 0 (Herbicidal rate of 5% or less (almost no effect))
- herbicidal effect rating, J: blackgrass (blackgrass): 1 (Herbicidal rate of 5% or more and less than 20%)
- herbicidal effect rating, K: Italian ryegrass (Italian ryegrass): 3 (Herbicidal rate of 40% or more and less than 70%)
- herbicidal effect rating, L: windgrass (windgrass [2]): 0 (Herbicidal rate of 5% or less (almost no effect))
- herbicidal effect rating, O: lambsquarters (lambsquarters [3]): 4 (Herbicidal rate of 70% or more and less than 90%)
- herbicidal effect rating, R: persian speedwell (persian speedwell [4]): 5 (Herbicidal rate of 90% or more (almost completely withered))
- herbicidal effect grade, H: barnyard grass (barnyard grass; [11]): 4 (Herbicidal rate of 70% or more and less than 90%)
- herbicidal effect grade, I: wild oat (wild oat [5]; [11]): 0 (Herbicidal rate of 5% or less (almost no effect))
- herbicidal effect grade, L: windgrass (windgrass [6]; [11]): 5 (Herbicidal rate of 90% or more (almost completely withered))
- herbicidal effect grade, M: velvetleaf (velvetleaf; [11]): 3 (Herbicidal rate of 40% or more and less than 70%)
- herbicidal effect grade, O: lambsquarters (lambsquarters [7]; [11]): 2 (Herbicidal rate of 20% or more and less than 40%)
- herbicidal effect grade, R: persian speedwell (persian speedwell [8]; [11]): 5 (Herbicidal rate of 90% or more (almost completely withered))
